These results are taken from patent EP2729445B1, “CYCLIC AMINE DERIVATIVES AS EP4 RECEPTOR ANTAGONISTS” (Rottapharm Biotech S.r.l., priority 2011, dated 2013).

Data set [1] can be described thus: Pharmacokinetics after intravenous and oral treatment, plasma LC-MS/MS. The format is in vivo, male Han Wistar rats. As to conditions: rat, 1 mg/kg; for AUC(0-t) / AUC(0-inf) / half-life / clearance / Vd / Cmax / Tmax / bioavailability: male, Han Wistar, plasma; for AUC(0-inf): extrapolated to infinity; for half-life / clearance / Vd: extrapolated, indicative only; for clearance: read-out: CLp* (converted); for Vd: read-out: Vss*. On the procedure: The pharmacokinetics of compounds E7, E17 and E18, were studied in male Han Wistar rats. The rats were treated intravenously and orally (n=3 for each dose route) with compounds formulated as solutions. The rats were fitted with a jugular cannula for serial sampling. A full profile was acquired from each rat. Plasma extracts were quantitatively analyzed using a specific and sensitive LC-MS/MS bioanalytical method. Inter-individual variations between the three rats in each group were limited (CV for pharmacokinetic parameters was below 50%). […] A range of clearance values were obtained for the different structure, ranging from low to moderate values (from 43 to 250 ml/h). After oral administration, absorption was quite fast with a clear maximum concentration reached by the first sampling time-point of 15 minutes for all compounds.

The target of data set [2] is T1, hEP4 receptors (Homo sapiens, UniProt P35408).
T1 construct: membrane fraction used
The data set is described as follows: cAMP assay (AlphaScreen) on human EP4 membrane of transfected cells, antagonism of PGE2. It is filed as biochemical. As to conditions: HEK293 cell membrane stimulated with PGE2 3nM; read-out: functional IC50. On the procedure:
(§1) The cDNA clone of human EP4 receptor (NM_000958.2) was obtained from InvitrogenTM: Ultimate™ ORF Clone Collection - Clone ID IOH46525. The coding sequence was subcloned in expression vector pcDNATM6.2/V5-DEST by Gateway technology (InvitrogenTM). Human embryonic kidney cells (HEK-293) were stably transfected with expression vector for human EP4 receptor in according to the method described in FuGENE®6 Transfection Reagent's manual (Roche Applied Science®).
(§2) The EP4 transfected cells were grown in Dulbecco's modified Eagle's medium containing 10% fetal bovine serum and 10 µg/ml Blasticidin S HCl (selection medium) at 37°C in a humidified atmosphere of 5% CO2 in air. For the membrane preparation, cells in flask were harvested by hypotonical/mechanical lysis with chilled (4°C) TE buffer (5mM TRIS, 5mM ethylenediamine tetra-acetic acid (EDTA), pH 7.4). Cells were detached and lysed with 10ml of hypotonic lysis buffer and by scraping. The cell lysate was vortexed for 30 sec and centrifuged at 40000x g at 4°C for 22min.
The assay is based on the competition between endogenous cAMP and exogenously added biotinylated cAMP. The capture of cAMP is achieved by using a specific antibody conjugated to Donor beads. Cell membranes prepared as described above, were resuspended in 1 ml stimulation buffer (HBSS 1X + BSA 0.1% + IBMX 0.5mM + HEPES 5mM + MgCl2 10mM + GTP 1 nM + GDP 10µM + ATP 100µM - pH 7.4). Cell membranes were dispensed into white 384-well microplates at final concentration of 1µg/well and used for the determination of cAMP with the alphascreen cAMP functional assay (EnVision - PerkinElmer). Cell membrane/anti-cAMP Acceptor beads mix (5 µl) and a mixture of analysed compounds (dissolved in 100% DMSO to a final maximal concentration of 0.01% DMSO)/PGE2 (5 µl) were incubated at room temperature (22-23°C) for 30 min in the dark. The Biotinylated-cAMP and donor beads (15 µl) were dispensed into each well to start the competition reaction. After 1 h incubation RT (22-23°C) in the dark the plate was read using EnVision platform to determine the cAMP level (excitation: 680nm; emission:520,620nm). In each experiment:
cAMP standard curve (concentration range from 1x10-6 to 1x10-11 M in log intervals) with a negative control (no cAMP)
a positive control: forskolin 10µM
Antagonism studies were performed stimulating HEK293 cell membrane with PGE2 3nM. The AlphaScreen signal is plotted as a function of log concentration of cAMP and functional IC50 is determined. IC50 value is calculated by linear regression.
In general terms: Cyclic AMP is a second messenger, typically raised through Gs and lowered through Gi signalling.

In data set [3] the target is T1, hEP4 receptors. The experiment in a line: [3H]-Prostaglandin E2 membrane binding assay. The conditions noted are these: read-out: Binding pKi (converted). On the procedure: as §1, §2
The membrane pellet was resuspended in the same buffer (5mM TRIS, 5mM ethylenediamine tetra-acetic acid (EDTA), pH 7.4), and protein concentration was determined by Bradford method (Bio-Bad® assay). This membrane preparation was stored at -80°C freezer until use for binding assay. ([^3H]-PGE2) membranes binding assays toward hEP4 receptors (human EP4/HEK293 transfectant, see above) and hEP2 receptors (human EP2/HEK293 transfectant, purchased from PerkinElmer Inc) were performed in 10 mM MES-KOH buffer pH6, containing 10 mM MgCl2 and 1 mM CaCl2 for EP4 binding assay or 50 mM Tris-Cl, BSA 0.5% for EP2 binding assay (according to supplier indication) . Ten microgram of protein from membrane fractions were incubated in a total volume of 0.1ml (EP4) or 0.2ml (EP2) with 1nM (EP4) or 3nM (EP2) [^3H]-PGE2 (PerkinElmer Inc, 171Ci/mmol). In both assays to determine the total binding or non specific binding, 1% DMSO or 1µM prostaglandin E2 (EP4) or 100 µM (EP2) were added to reaction mixtures, respectively. Incubation was conducted in a polypropylene 96 multiwell for 90 min (EP4) or 60 min (EP2) at room temperature prior to separation of the bound and free radioligand by vacuum manifold rapid filtration on glass fiber filters (Unifilter GFB96, PerkinElmer Inc) pre-soaked in 0.3% polyethyleneimine. Filters were washed with ice cold buffer pH 7.4 (50mM HEPES, NaCl 500mM, BSA 0.1% for EP4 binding assay or 50mM Tris-Cl for EP2 binding assays) and the residual [^3H]-PGE2 binding determined by solid scintillation counter (TopCount , PerkinElmer Inc).
The affinity (Ki) of each compound was calculated according to the Cheng-Prousoff equation: Ki = IC50/(1+([C]/Kd)). Results were expressed as pKi (- log10 Ki (M)

Each structure is given as a SMILES string.

T1 sequence (P35408 whole entry): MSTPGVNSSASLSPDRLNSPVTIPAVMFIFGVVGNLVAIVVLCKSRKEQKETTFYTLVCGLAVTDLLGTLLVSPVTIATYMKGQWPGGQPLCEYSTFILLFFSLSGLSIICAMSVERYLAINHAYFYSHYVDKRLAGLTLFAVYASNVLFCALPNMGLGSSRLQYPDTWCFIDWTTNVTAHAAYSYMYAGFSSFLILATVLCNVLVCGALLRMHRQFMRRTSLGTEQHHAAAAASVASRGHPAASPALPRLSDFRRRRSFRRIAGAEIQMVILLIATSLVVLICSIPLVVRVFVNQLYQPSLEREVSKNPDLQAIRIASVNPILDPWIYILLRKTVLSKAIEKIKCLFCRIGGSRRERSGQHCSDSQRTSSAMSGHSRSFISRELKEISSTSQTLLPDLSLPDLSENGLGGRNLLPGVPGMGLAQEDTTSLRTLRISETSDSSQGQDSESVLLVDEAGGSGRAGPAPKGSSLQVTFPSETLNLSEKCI

Regarding `O=C(O)c1ccc(C2(NC(=O)C3CC(F)(F)CCN3Cc3ccc(C(F)(F)F)cc3)CC2)cc1` (single isomer, unassigned) [Example E18, 4-(1-(4,4-difluoro-1-(4-(trifluoromethyl)benzyl)piperidine-2-carboxamido)cyclopropyl)benzoic acid], in data set [1] (iv), the AUC(0-t) (as a rule, exposure summed from dosing to a finite time, without extrapolation to infinity) was 1260 ng·h/mL; the AUC(0-inf) – broadly, the area under the concentration-time curve extrapolated to infinity – is 1390 ng·h/mL; the half-life – broadly, how long it takes for the measured level to halve – was 9.3 h; the clearance was 3.17 mL/min. In addition, in data set [1] (iv), the Vd is 1.7 L and the “Tlast” value was determined as 24 h. Further, in data set [1] (po), the exposure AUC(0-t) came to 1170 ng·h/mL, the highest level (Cmax) was 556 ng/mL, the Tmax (usually the time from dosing to the highest level) was determined as 0.5 h and the AUC(0-inf) was 1200 ng·h/mL. Besides, in data set [1] (po), the half-life was 5.1 h; the bioavailability (usually dose-corrected exposure relative to a reference, in per cent) was 93%; the “Tlast” value worked out at 24 h. Moreover, the IC50 (in general, the point on the concentration scale where inhibition reaches its midpoint) in data set [2] turned out to be 11 nM. Besides, the Ki in data set [3] is 6.31 nM.

As for `O=C(O)c1ccc(C2(NC(=O)[C@H]3CC(F)(F)CCN3Cc3ccc(C(F)(F)F)cc3)CC2)cc1` [Example E17, (R)-4-(1-(4,4-difluoro-1-(4-(trifluoromethyl)benzyl)piperidine-2-carboxamido)cyclopropyl)benzoic acid], in data set [1] (iv), the AUC(0-t) was 966 ng·h/mL, the AUC(0-inf) was 1040 ng·h/mL, the half-life is 7.3 h and the clearance was 4.22 mL/min. Moreover, the Vd in data set [1] (iv) is 1.79 L. Besides, in data set [1] (po), the AUC(0-t) amounted to 823 ng·h/mL, the concentration peaked (Cmax) at 318 ng/mL, the Tmax stood at 0.5 h and the AUC(0-inf) was 1080 ng·h/mL. Besides, in data set [1] (po), the half-life is 14.1 h, the bioavailability was determined as 85% and the “Tlast” value is given as 24 h. Moreover, the 50% inhibitory concentration (IC50) in data set [2] came to 28 nM. The Ki in data set [3] was 12.6 nM.
